Reference: US12595255B2, “Heteroaryl-substituted imidazole derivatives” (Hoffmann-La Roche Inc., priority 2021, dated 2026)
Read-outs that look alike come from different tables or passages of the source.

System: Acinetobacter baumannii ATCC17961
Experiment: Antimicrobial susceptibility testing: 90% growth inhibitory concentration (IC90) determination
Assay type: cell-based
Method: Assay Procedures Antimicrobial Susceptibility Testing: 90% Growth Inhibitory Concentration (IC90) Determination
The in vitro antimicrobial activity of the compounds was determined according to the following procedure:
The assay used a 10-points Iso-Sensitest broth medium to measure quantitatively the in vitro activity of the compounds against Acinetobacter baumannii ATCC17961.
Stock compounds in DMSO were serially twofold diluted (e.g. range from 50 to 0.097 μM final concentration) in 384 wells microtiter plates and inoculated with 49 μl the bacterial suspension in Iso-Sensitest medium to have a final cell concentration of ˜5×10^5 CFU/ml in a final volume/well of 50 μl/well. Microtiter plates were incubated at 35±2° C.
Bacterial cell growth was determined with the measurement of optical density at λ=600 nm each 20 minutes over a time course of 16 h. Growth inhibition was calculated during the logarithmic growth of the bacterial cells with determination of the concentration inhibiting 50% (IC50) and 90% (IC90) of the growth.
Table 1 provides the 90% growth inhibitory concentrations (IC90) in micromoles per liter of the compounds of present invention obtained against the strain Acinetobacter baumannii ATCC17961.

[1] = ATCC17961, 16 h, read-out: ATCC 17961 IC90 [μM]
[2] = ATCC17961, 90% growth inhibitory concentration, Iso-Sensitest broth, OD 600 nm over 16 h, 35±2° C., read-out: ATCC 17961 IC90

| SMILES | IC90 [2] [µM] | IC90 [1] [µM] |
| --- | --- | --- |
| CN(C)c1nc(F)c(-c2cnc(C(=O)Nc3ccc(C(=O)NC4CC(NC(=O)C[N+](C)(C)C)C4)c(Cl)c3)n2C)cc1F (stereo not shown) [Example D8, [2-[[3-[[2-chloro-4-[[5-[6-(dimethylamino)-2,5-difluoro-3-pyridyl]-1-methyl-imidazole-2-carbonyl]amino]benzoyl]amino]cyclobutyl]amino]-2-oxo-ethyl]-trimethyl-ammonium] |  | 2.7 |
| Cn1c(-c2c(Cl)ccc3[nH]ccc23)cnc1C(=O)Nc1ccc(C(=O)N2CCN(C(=O)C[C@@H]3CCNC3)CC2)c(Cl)c1 [Example A11, 5-(5-chloro-1H-indol-4-yl)-N-[3-chloro-4-[4-[2-[(3S)-pyrrolidin-3-yl]acetyl]piperazine-1-carbonyl]phenyl]-1-methyl-imidazole-2-carboxamide] | 0.29 |  |
| COc1ccc(-c2cnc(C(=O)Nc3ccc(C(=O)N4CCN(C(=O)C5CCNCC5)CC4)c(Cl)c3)n2C)c(C(F)F)n1 [Example A19, N-[3-chloro-4-[4-(piperidine-4-carbonyl)piperazine-1-carbonyl]phenyl]-5-[2-(difluoromethyl)-6-methoxy-3-pyridyl]-1-methyl-imidazole-2-carboxamide] | 0.91 |  |
| COc1ccc(-c2cnc(C(=O)Nc3ccc(C(=O)N4CCN(C(=O)[C@@H]5C[C@@H](O)CN5)CC4)c(Cl)c3)n2C)c(C(F)(F)F)n1 [Example A17, N-[3-chloro-4-[4-[(2S,4R)-4-hydroxypyrrolidine-2-carbonyl]piperazine-1-carbonyl]phenyl]-5-[6-methoxy-2-(trifluoromethyl)-3-pyridyl]-1-methyl-imidazole-2-carboxamide] | 0.36 |  |
| COc1ncc(-c2cnc(C(=O)Nc3ccc(C(=O)N4CCN(C(=O)C5CCNCC5)CC4)c(Cl)c3)n2C)c(C(F)(F)F)n1 [Example A10, N-[3-chloro-4-[4-(piperidine-4-carbonyl)piperazine-1-carbonyl]phenyl]-5-[2-methoxy-4-(trifluoromethyl)pyrimidin-5-yl]-1-methyl-imidazole-2-carboxamide] | 1.4 |  |
| CN(C)c1nc(F)c(-c2cnc(C(=O)Nc3ccc(C(=O)NCCCCCCN)c(Cl)c3)n2C)cc1F [Example B1, N-[4-(6-aminohexylcarbamoyl)-3-chloro-phenyl]-5-[6-(dimethylamino)-2,5-difluoro-3-pyridyl]-1-methyl-imidazole-2-carboxamide] | 1.7 |  |
| Cn1c(-c2ccc3c(c2)OCCO3)cnc1C(=O)Nc1ccc(C(=O)N2CCN(C(=O)C3CCNCC3)CC2)c(Cl)c1 [Example A20, N-[3-chloro-4-[4-(piperidine-4-carbonyl)piperazine-1-carbonyl]phenyl]-5-(2,3-dihydro-1,4-benzodioxin-6-yl)-1-methyl-imidazole-2-carboxamide] | 0.52 |  |
| Cn1c(-c2c(F)ccc3[nH]ccc23)cnc1C(=O)Nc1ccc(C(=O)N2CCN(C(=O)C[C@@H]3CCNC3)CC2)c(Cl)c1 [Example A1, N-[3-chloro-4-[4-[2-[(3S)-pyrrolidin-3-yl]acetyl]piperazine-1-carbonyl]phenyl]-5-(5-fluoro-1H-indol-4-yl)-1-methyl-imidazole-2-carboxamide] |  | 0.23 |
| Cc1cc(NC(=O)c2ncc(-c3cc(F)c(N(C)C)nc3F)n2C)ccc1C(=O)N1CCN(C(=O)CN(C)C)CC1 [Example C2, N-[4-[4-[2-(dimethylamino)acetyl]piperazine-1-carbonyl]-3-methyl-phenyl]-5-[6-(dimethylamino)-2,5-difluoro-3-pyridyl]-1-methyl-imidazole-2-carboxamide] | 2.5 |  |
| COc1ccc(-c2cnc(C(=O)Nc3ccc(C(=O)N4CCN(C(=O)C5CCNCC5)CC4)c(Cl)c3)n2C)c(C(F)(F)F)n1 [Example A16, N-[3-chloro-4-[4-(piperidine-4-carbonyl)piperazine-1-carbonyl]phenyl]-5-[6-methoxy-2-(trifluoromethyl)-3-pyridyl]-1-methyl-imidazole-2-carboxamide] | 0.28 |  |
| COc1cc(-c2cnc(C(=O)Nc3ccc(C(=O)N4CCN(C(=O)C5CCNCC5)CC4)c(Cl)c3)n2C)c(Cl)cn1 [Example A8, 5-(5-chloro-2-methoxy-4-pyridyl)-N-[3-chloro-4-[4-(piperidine-4-carbonyl)piperazine-1-carbonyl]phenyl]-1-methyl-imidazole-2-carboxamide] | 0.57 |  |

Now from value to compound, other results behind:

| IC90 [2] [µM] | SMILES | IC90 [1] [µM] |
| --- | --- | --- |
| 0.59 | CN(C)c1nc(F)c(-c2cnc(C(=O)Nc3ccc(C(=O)N4CCN(C(=O)C5CC[N+](C)(C)C5)CC4)c(Cl)c3)n2C)cc1F (stereo not shown) [Example D5, N-[3-chloro-4-[4-(1,1-dimethylpyrrolidin-1-ium-3-carbonyl)piperazine-1-carbonyl]phenyl]-5-[6-(dimethylamino)-2,5-difluoro-3-pyridyl]-1-methyl-imidazole-2-carboxamide] |  |
| 1.9 | CN(C)c1nc(F)c(-c2cnc(C(=O)Nc3ccc(C(=O)NC4CCN(C(=O)[C@@H]5C[C@@H](O)CN5)CC4)c(Cl)c3)n2C)cc1F [Example F9, N-[3-chloro-4-[[1-[(2S,4R)-4-hydroxypyrrolidine-2-carbonyl]-4-piperidyl]carbamoyl]phenyl]-5-[6-(dimethylamino)-2,5-difluoro-3-pyridyl]-1-methyl-imidazole-2-carboxamide] |  |
| 4.2 | CN(C)c1nc(F)c(-c2cnc(C(=O)Nc3ccc(C(=O)NCCCCCC[N+](C)(C)C)c(Cl)c3)n2C)cc1F [Example D3, 6-[[2-chloro-4-[[5-[6-(dimethylamino)-2,5-difluoro-3-pyridyl]-1-methyl-imidazole-2-carbonyl]amino]benzoyl]amino]hexyl-trimethyl-ammonium] |  |
| 0.65 | CN(C)c1nc(F)c(-c2cnc(C(=O)Nc3ccc(C(=O)N4CCN(C(=O)C[N+](C)(C)C)CC4)c(Cl)c3)n2C)cc1F [Example D1, [2-[4-[2-chloro-4-[[5-[6-(dimethylamino)-2,5-difluoro-3-pyridyl]-1-methyl-imidazole-2-carbonyl]amino]benzoyl]piperazin-1-yl]-2-oxo-ethyl]-trimethyl-ammonium] |  |
| 0.47 | CN(C)c1ccc(-c2cnc(C(=O)Nc3ccc(C(=O)N4CCN(C(=O)C5CCNCC5)CC4)c(Cl)c3)n2C)c(Cl)n1 [Example E5, 5-[2-chloro-6-(dimethylamino)-3-pyridyl]-N-[3-chloro-4-[4-(piperidine-4-carbonyl)piperazine-1-carbonyl]phenyl]-1-methyl-imidazole-2-carboxamide] |  |
| 0.19 | CN(C)c1nc(F)c(-c2cnc(C(=O)Nc3ccc(C(=O)N4CCN(C(=O)C5CCNCC5)CC4)c(Cl)c3)n2C)cc1F [Example E2, N-[3-chloro-4-[4-(piperidine-4-carbonyl)piperazine-1-carbonyl]phenyl]-5-[6-(dimethylamino)-2,5-difluoro-3-pyridyl]-1-methyl-imidazole-2-carboxamide] |  |
| 0.6 | CN(C)c1nc(F)c(-c2cnc(C(=O)Nc3ccc(C(=O)N4CCN(C(=O)C5CC[N+](C)(C)CC5)CC4)c(Cl)c3)n2C)cc1F [Example D4, N-[3-chloro-4-[4-(1,1-dimethylpiperidin-1-ium-4-carbonyl)piperazine-1-carbonyl]phenyl]-5-[6-(dimethylamino)-2,5-difluoro-3-pyridyl]-1-methyl-imidazole-2-carboxamide] |  |
| 1.2 | CNc1nc(F)c(-c2cnc(C(=O)Nc3ccc(C(=O)N4CCN(C(=O)C5CCNCC5)CC4)c(Cl)c3)n2C)cc1F [Example E1, N-[3-chloro-4-[4-(piperidine-4-carbonyl)piperazine-1-carbonyl]phenyl]-5-[2,5-difluoro-6-(methylamino)-3-pyridyl]-1-methyl-imidazole-2-carboxamide] |  |
